# Measurements: patent US20020197269A1, “Pharmaceutical composition for immunomodulation and preparation of vaccines” (CISTEM BIOTECHNOLOGIES GMBH, priority 2000, published 2002)
# In the oligonucleotide strings, read from the 5' end, every base follows the letter of its sugar. An asterisk marks phosphorothioate; unmarked linkages are phosphodiester. Other units and linkages are bracketed, terminal groups are in braces. A string of capitals states the bases alone. d = 2'-deoxy (DNA)
# Tested on: MC1R-peptide (WGPFFLHL) specific IFN-γ-producing cells
# Test: IFN-γ-ELISPOT after footpad injection with MC1R-peptide (Example 3)
# Assay type: in vivo, Mice C57B1/6
# Conditions: co-injected with MC1R-peptide 300 μg/mouse into hind footpads; 4 days after injection; CpG-ODN 5 nmol/mouse
substance,measurement,value
CpG 1668: thiophosphate substituted ODNs containing a CpG motif: TCCATGACGTTCCTGATGCT (DNA dT*dC*dC*dA*dT*dG*dA*dC*dG*dT*dT*dC*dC*dT*dG*dA*dT*dG*dC*dT),peptide-specific IFN-γ-producing cells / peptide-specific response (IFN-γ-ELISPOT),low numbers
